Bounds are passed on as bounds.

From publication PMC9443684 (RSC Advances, 2022) come the findings set out here.

In test [1] the target is T1, COX-1 (Ovis aries, UniProt P05979).
T1 sequence (P05979 25-600): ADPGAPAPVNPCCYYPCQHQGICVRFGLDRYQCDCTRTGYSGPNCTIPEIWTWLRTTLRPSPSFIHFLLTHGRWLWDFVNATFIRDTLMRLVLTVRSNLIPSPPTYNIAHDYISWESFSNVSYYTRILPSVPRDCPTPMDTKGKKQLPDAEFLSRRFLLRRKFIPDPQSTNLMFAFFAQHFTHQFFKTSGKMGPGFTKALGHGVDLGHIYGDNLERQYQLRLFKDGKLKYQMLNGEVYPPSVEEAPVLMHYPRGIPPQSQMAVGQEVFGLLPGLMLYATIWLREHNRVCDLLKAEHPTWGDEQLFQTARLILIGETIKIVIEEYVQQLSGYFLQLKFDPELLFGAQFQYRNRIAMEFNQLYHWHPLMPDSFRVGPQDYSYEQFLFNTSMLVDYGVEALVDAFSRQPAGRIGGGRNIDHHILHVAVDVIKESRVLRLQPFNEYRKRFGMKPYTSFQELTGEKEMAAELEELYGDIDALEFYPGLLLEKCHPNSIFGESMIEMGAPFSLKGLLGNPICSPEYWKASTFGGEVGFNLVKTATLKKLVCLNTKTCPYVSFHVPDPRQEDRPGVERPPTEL
The test can be described thus: In vitro cyclooxygenase. The format is biochemical, ovine.

The subject of test [2] is HepG2 cancer cell line. Kind of test: MTT assay, anticancer activity against HepG2. As to conditions: Homo sapiens. The format is cell-based.
In test [3] the target is T2, COX-2 (Ovis aries, UniProt P79208).
T2 sequence (P79208 17-603): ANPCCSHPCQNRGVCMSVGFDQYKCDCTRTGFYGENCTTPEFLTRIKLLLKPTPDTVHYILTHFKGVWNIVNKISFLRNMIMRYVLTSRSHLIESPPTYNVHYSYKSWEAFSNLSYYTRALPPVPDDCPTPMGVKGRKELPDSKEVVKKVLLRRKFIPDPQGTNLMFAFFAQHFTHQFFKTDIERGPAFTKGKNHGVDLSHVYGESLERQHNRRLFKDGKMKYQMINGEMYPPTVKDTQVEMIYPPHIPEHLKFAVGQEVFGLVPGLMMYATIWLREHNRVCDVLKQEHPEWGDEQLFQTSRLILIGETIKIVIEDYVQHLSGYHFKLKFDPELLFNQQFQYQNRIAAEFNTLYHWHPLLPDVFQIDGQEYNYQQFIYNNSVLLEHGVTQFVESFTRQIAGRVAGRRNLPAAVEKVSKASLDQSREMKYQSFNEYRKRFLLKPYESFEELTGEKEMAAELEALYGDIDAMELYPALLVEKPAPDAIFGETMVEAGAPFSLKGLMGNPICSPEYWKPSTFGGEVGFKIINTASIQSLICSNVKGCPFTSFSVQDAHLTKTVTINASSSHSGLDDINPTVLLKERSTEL
Kind of test: In vitro cyclooxygenase. The format is biochemical, ovine.

The subject of test [4] is MCF-7 cancer cell line. Kind of test: MTT assay, anticancer activity against MCF-7. The format is cell-based. The settings on record: Homo sapiens.
The subject of test [5] is HCT-116 cancer cell line. The test can be described thus: MTT assay, anticancer activity against HCT-116. The format is cell-based. The settings on record: Homo sapiens.
The subject of test [6] is MCF-7, HepG2 and HCT-116 cancer cell lines. Kind of test: MTT assay, statements over the three cancer cell lines together. The format is cell-based.
Test [7] addresses EGFR (Homo sapiens, UniProt P00533). Kind of test: In vitro EGFR-TK inhibition assay. The format is biochemical.

EGFR, sequence (P00533 25-1210): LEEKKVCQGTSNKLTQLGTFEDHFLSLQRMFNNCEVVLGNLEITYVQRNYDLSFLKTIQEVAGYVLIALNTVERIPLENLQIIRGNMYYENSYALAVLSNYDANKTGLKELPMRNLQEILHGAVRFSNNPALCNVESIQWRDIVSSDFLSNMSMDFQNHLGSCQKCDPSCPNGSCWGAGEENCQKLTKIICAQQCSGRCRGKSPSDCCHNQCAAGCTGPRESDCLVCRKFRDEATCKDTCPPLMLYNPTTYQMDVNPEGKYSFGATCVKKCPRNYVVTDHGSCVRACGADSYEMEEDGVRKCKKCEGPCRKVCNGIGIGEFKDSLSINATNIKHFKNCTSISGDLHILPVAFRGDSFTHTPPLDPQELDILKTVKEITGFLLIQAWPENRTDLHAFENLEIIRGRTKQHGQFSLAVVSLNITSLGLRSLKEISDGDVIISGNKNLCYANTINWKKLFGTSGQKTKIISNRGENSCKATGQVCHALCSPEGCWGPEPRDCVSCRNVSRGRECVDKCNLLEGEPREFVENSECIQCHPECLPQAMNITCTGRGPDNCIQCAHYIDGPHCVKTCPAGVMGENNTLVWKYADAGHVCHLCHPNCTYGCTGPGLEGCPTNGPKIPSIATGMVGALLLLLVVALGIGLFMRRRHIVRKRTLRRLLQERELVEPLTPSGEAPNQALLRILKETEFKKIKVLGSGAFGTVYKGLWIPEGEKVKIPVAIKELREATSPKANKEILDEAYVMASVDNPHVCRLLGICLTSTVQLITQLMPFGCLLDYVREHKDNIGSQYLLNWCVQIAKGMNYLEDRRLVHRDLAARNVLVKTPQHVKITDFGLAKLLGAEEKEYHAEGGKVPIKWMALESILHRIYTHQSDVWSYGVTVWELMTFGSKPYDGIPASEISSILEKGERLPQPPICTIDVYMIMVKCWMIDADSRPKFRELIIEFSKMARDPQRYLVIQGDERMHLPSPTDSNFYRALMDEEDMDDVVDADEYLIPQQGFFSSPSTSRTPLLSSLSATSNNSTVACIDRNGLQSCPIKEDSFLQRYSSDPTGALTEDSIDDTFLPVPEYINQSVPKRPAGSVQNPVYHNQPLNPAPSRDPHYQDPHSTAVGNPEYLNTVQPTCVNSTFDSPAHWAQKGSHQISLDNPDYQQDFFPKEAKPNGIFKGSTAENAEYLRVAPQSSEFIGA

As to `Cn1c(=O)c(C(=O)NNC(=S)Nc2ccccc2)nc2ccccc21` [Compound 13, 2-(4-Methyl-3-oxo-3,4-dihydroquinoxaline-2-carbonyl)-N-phenylhydrazine-carbothioamide], the IC50 in test [1] is 30400 ± 1630 nM; in test [2] (HepG2, 48 h, read-out: Anticancer activity IC50), 960 ± 90 nM; in test [3] it was 460 ± 60 nM; in test [4] (MCF7, 48 h, read-out: Anticancer activity IC50), 810 ± 130 nM; in test [5] (HCT-116, 48 h, read-out: Anticancer activity IC50), 1120 ± 190 nM; in test [6] (read-out: Anticancer activity IC50 against the three cancer cell lines), 810 to 2910 nM. The IC50 in test [7] was determined as 400 ± 20 nM. In addition, the inhibition at 10 µM in test [2] (HepG2, read-out: Cell growth inhibition (GI%)) was 96.75 ± 0.29%; in test [4] (MCF7, read-out: Cell growth inhibition (GI%)), 95.39 ± 0.27%; in test [5] (HCT-116, read-out: Cell growth inhibition (GI%)), 97.87 ± 0.19%; in test [6] (read-out: Growth inhibition against the three cancer cell lines) it was not below 88.7%. Moreover, in test [3] (IC50 (COX-1)/IC50 (COX-2)), the “SI (selectivity index)” value is recorded as 66.11.
